Laboratory results reported in patent US10160755B2 (Plexxikon Inc., priority 2015, dated 2018).

Columns and labels:
FLT3-D835Y = target: T1, FLT3-D835Y (Homo sapiens, UniProt P36888, D835Y); test: FLT3-D835Y biochemical kinase assay (AlphaScreen)
T1 construct: purchased Invitrogen PV3967
T1 sequence (P36888 27-993 D835Y): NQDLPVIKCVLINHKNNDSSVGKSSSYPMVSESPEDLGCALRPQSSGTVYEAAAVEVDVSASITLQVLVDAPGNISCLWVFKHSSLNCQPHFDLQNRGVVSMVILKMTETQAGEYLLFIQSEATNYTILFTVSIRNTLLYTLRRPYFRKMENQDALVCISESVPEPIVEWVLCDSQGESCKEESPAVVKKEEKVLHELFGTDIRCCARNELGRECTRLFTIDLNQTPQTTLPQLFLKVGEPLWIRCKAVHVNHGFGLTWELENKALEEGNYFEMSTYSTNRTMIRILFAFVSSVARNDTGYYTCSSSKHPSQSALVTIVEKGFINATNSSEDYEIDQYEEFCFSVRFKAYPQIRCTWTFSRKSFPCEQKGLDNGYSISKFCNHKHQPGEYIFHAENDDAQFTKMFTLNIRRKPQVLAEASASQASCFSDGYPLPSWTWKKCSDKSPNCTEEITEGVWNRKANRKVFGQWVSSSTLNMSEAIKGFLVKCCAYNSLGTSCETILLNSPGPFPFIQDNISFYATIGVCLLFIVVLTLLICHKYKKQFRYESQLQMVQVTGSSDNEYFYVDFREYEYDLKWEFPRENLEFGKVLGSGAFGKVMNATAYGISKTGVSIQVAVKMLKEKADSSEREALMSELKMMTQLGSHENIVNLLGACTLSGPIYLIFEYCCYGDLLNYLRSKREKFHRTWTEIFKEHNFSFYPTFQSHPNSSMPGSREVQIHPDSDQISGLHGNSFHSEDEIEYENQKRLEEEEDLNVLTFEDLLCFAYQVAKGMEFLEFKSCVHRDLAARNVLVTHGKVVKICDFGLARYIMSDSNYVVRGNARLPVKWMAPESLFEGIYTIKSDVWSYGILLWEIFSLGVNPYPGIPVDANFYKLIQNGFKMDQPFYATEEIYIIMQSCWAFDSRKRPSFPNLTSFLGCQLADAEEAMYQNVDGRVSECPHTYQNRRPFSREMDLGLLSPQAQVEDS
In short: (§1)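 Compounds were tested against recombinant enzyme using AlphaScreen detection of tyrosine-phosphorylated biotin-poly(Glu4-Tyr) (30 nM final). The ATP concentration differed by construct: 10 μM for D835Y, 100 μM for ITD.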

c-Kit = c-Kit (Homo sapiens, UniProt P10721); test: c-Kit biochemical assay (per US 2007/0032519)
Chain of c-Kit (P10721 26-976): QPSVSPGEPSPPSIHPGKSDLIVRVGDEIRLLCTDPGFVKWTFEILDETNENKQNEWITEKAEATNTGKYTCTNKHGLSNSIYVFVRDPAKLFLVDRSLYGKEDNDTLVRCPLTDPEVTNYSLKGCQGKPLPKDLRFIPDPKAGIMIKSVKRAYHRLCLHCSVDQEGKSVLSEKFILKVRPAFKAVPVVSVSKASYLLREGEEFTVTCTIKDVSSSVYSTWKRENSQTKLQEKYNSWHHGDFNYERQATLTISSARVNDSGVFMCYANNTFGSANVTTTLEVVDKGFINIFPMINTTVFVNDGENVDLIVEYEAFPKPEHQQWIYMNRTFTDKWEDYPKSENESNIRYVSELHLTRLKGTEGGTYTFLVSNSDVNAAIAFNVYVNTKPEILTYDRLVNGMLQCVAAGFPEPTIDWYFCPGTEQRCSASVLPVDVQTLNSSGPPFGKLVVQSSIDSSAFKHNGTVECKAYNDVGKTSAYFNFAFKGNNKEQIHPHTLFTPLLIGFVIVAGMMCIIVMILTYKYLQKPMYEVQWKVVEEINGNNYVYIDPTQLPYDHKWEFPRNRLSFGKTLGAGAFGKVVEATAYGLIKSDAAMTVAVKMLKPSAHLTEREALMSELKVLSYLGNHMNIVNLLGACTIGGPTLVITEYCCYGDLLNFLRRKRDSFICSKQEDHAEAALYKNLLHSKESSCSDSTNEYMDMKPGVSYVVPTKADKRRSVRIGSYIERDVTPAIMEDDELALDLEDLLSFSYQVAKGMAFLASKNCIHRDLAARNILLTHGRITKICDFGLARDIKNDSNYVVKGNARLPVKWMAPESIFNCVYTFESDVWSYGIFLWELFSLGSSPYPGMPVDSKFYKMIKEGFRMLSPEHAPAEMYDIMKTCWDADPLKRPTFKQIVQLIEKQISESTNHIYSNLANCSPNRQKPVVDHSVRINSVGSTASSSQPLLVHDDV
Description: The following Table 2 provides data indicating FLT3 ITD, FLT3 D835Y, and KIT biochemical activity, and BaF3 FLT3 ITD/F69L cellular inhibitory activity for exemplary compounds described in this disclosure. In the table below, activity is provided as follows: +++=0.0001<IC50<1 μM; ++=1 μM<IC50<10 μM, +=10 μM<IC50<200 μM. Assays for the biochemical activity of c-Kit and FMS were conducted according to those assays described in US Patent Application Publication number US 2007/0032519, the disclosure of which is hereby incorporated by reference in its entirety.

FLT3-ITD = target: T2, FLT3-ITD (Homo sapiens, UniProt P36888); test: FLT3-ITD biochemical kinase assay (AlphaScreen)
T2 construct: FLT3-ITD; Invitrogen #PV6190
T2 sequence (P36888 1-993): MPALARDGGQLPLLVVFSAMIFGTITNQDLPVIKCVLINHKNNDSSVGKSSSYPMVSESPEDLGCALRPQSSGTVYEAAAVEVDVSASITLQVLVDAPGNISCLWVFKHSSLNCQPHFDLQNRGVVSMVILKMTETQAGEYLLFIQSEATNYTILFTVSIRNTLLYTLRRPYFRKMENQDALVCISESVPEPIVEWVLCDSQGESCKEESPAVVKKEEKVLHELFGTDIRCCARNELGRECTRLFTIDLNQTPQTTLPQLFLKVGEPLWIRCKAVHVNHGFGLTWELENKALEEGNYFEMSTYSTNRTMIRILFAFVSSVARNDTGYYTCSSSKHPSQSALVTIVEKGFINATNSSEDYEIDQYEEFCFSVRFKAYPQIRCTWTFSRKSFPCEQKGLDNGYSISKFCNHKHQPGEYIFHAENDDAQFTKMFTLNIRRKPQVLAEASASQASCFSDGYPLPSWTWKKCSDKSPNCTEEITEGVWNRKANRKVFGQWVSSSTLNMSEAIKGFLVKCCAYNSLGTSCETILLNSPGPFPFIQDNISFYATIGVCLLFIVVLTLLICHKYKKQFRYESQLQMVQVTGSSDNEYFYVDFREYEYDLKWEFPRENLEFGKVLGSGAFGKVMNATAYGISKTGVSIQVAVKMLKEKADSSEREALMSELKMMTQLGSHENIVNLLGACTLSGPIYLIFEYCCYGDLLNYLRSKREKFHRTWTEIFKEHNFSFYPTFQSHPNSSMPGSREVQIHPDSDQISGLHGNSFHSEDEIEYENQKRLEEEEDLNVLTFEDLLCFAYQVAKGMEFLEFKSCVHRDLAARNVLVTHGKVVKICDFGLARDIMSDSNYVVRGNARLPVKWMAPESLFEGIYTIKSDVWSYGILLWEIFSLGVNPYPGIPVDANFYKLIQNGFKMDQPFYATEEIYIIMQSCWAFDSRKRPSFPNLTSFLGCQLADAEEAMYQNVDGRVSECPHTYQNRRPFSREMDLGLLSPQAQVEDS
In short: as §1

SMILES | IC50 (FLT3-D835Y) [µM] | IC50 (c-Kit) [µM] | IC50 (FLT3-ITD) [µM]
Fc1cnc2[nH]cc(-c3ccc4nc[nH]c4c3)c2c1 [P-022, 3-(3H-benzimidazol-5-yl)-5-fluoro-1H-pyrrolo[2,3-b]pyridine] | 1 to 10 | 10 to 200 | 1 to 10
O=C(C1CC1)N1CCC=C(c2cnc3[nH]cc(-c4ccc5[nH]cnc5c4)c3c2)C1 [P-033, [5-[3-(1H-benzimidazol-5-yl)-1H-pyrrolo[2,3-b]pyridin-5-yl]-3,6-dihydro-2H-pyridin-1-yl]-cyclopropyl-methanone] | 1 to 10 | 10 to 200 | 0.0001 to 1
O=C(C1CC1)N1CC=C(c2cnc3[nH]cc(-c4ccc5ncn(CC(F)(F)F)c5c4)c3c2)C1 [P-133, cyclopropyl-[3-[3-[3-(2,2,2-trifluoroethyl)benzimidazol-5-yl]-1H-pyrrolo[2,3-b]pyridin-5-yl]-2,5-dihydropyrrol-1-yl]methanone] | 0.0001 to 1 | 1 to 10 | 0.0001 to 1
Cn1cnc2ccc(-c3c[nH]c4ncc(Cl)cc34)cc21 [P-019, 5-chloro-3-(3-methylbenzimidazol-5-yl)-1H-pyrrolo[2,3-b]pyridine] | 0.0001 to 1 | 10 to 200 | 0.0001 to 1
Cc1cnc2[nH]cc(-c3ccc4nc[nH]c4c3)c2c1 [P-021, 3-(3H-benzimidazol-5-yl)-5-methyl-1H-pyrrolo[2,3-b]pyridine] | 0.0001 to 1 | 1 to 10 | 0.0001 to 1
Cn1cnc2ccc(-c3c[nH]c4ncc(-c5cccc(C#N)c5)cc34)cc21 [P-089, 3-[3-(3-methylbenzimidazol-5-yl)-1H-pyrrolo[2,3-b]pyridin-5-yl]benzonitrile] | 0.0001 to 1 | 10 to 200 | 0.0001 to 1
COc1ccc2c(-c3ccc4ncn(C)c4c3)c[nH]c2n1 [P-034, 6-methoxy-3-(3-methylbenzimidazol-5-yl)-1H-pyrrolo[2,3-b]pyridine] | 1 to 10 | 10 to 200 | 1 to 10
Cn1cnc2ccc(-c3c[nH]c4ncc(C5=CCN(C(=O)C6CC6)C5)cc34)cc21 [P-130, cyclopropyl-[3-[3-(3-methylbenzimidazol-5-yl)-1H-pyrrolo[2,3-b]pyridin-5-yl]-2,5-dihydropyrrol-1-yl]methanone] | 0.0001 to 1 | 10 to 200 | 0.0001 to 1
Cn1cnc2ccc(-c3c[nH]c4ncc(-c5cnc(C6CC6)nc5)cc34)cc21 [P-039, 5-(2-cyclopropylpyrimidin-5-yl)-3-(3-methylbenzimidazol-5-yl)-1H-pyrrolo[2,3-b]pyridine] | 0.0001 to 1 | 1 to 10 | 0.0001 to 1
COc1cc(-c2cnc3[nH]cc(-c4ccc5ncn(C)c5c4)c3c2)ccn1 [P-042, 5-(2-methoxy-4-pyridyl)-3-(3-methylbenzimidazol-5-yl)-1H-pyrrolo[2,3-b]pyridine] | 0.0001 to 1 | 1 to 10 | 0.0001 to 1
COc1cnc2[nH]cc(-c3ccc4ncn(CC5CC5)c4c3)c2c1 [P-062, 1-(cyclopropylmethyl)-6-(5-methoxy-1H-pyrrolo[2,3-b]pyridin-3-yl)benzimidazole] | 0.0001 to 1 | 10 to 200 | 0.0001 to 1
CS(=O)(=O)Nc1cccc(-c2cnc3[nH]cc(-c4ccc5c(c4)N(CC4CC4)CCO5)c3n2)c1 [P-081, N-[3-[7-[4-(cyclopropylmethyl)-2,3-dihydro-1,4-benzoxazin-6-yl]-5H-pyrrolo[2,3-b]pyrazin-2-yl]phenyl]methanesulfonamide] | 0.0001 to 1 | 10 to 200 | 0.0001 to 1
CS(=O)(=O)Nc1cccc(-c2cnc3[nH]cc(-c4ccc5c(c4)OCCO5)c3n2)c1 [P-059, N-[3-[7-(2,3-dihydro-1,4-benzodioxin-6-yl)-5H-pyrrolo[2,3-b]pyrazin-2-yl]phenyl]methanesulfonamide] | 0.0001 to 1 | 10 to 200 | 0.0001 to 1
COc1cnc2[nH]cc(-c3ccc4scnc4c3)c2c1 [P-051, 5-(5-methoxy-1H-pyrrolo[2,3-b]pyridin-3-yl)-1,3-benzothiazole] | 0.0001 to 1 | 10 to 200 | 0.0001 to 1

The remaining lines, values ahead:

IC50 (FLT3-D835Y) [µM] | IC50 (c-Kit) [µM] | IC50 (FLT3-ITD) [µM] | SMILES
0.0001 to 1 | 0.0001 to 1 | 0.0001 to 1 | Cc1nn(C(C)C)cc1-c1cnc2[nH]cc(-c3ccc4ncn(C(C)(C)C)c4c3)c2n1 [P-381, 7-(3-tert-butylbenzimidazol-5-yl)-2-(1-isopropyl-3-methyl-pyrazol-4-yl)-5H-pyrrolo[2,3-b]pyrazine]
0.0001 to 1 | 0.0001 to 1 | 0.0001 to 1 | CC(C)n1cc(-c2cnc3[nH]cc(-c4ccc5ncn(C(C)(C)C)c5c4)c3n2)cn1 [P-382, 7-(3-tert-butylbenzimidazol-5-yl)-2-(1-isopropylpyrazol-4-yl)-5H-pyrrolo[2,3-b]pyrazine]
0.0001 to 1 | 1 to 10 | 0.0001 to 1 | Cn1cnc2ccc(-c3c[nH]c4ncc(-c5ccc(NS(C)(=O)=O)cc5)nc34)cc21 [P-063, N-[4-[7-(3-methylbenzimidazol-5-yl)-5H-pyrrolo[2,3-b]pyrazin-2-yl]phenyl]methanesulfonamide]
0.0001 to 1 | 10 to 200 | 0.0001 to 1 | COc1cc(-c2cnc3[nH]cc(-c4ccc5ncn(C)c5c4)c3n2)ccn1 [P-045, 2-(2-methoxy-4-pyridyl)-7-(3-methylbenzimidazol-5-yl)-5H-pyrrolo[2,3-b]pyrazine]
0.0001 to 1 | 0.0001 to 1 | 0.0001 to 1 | CN(C)c1ccc(-c2cnc3[nH]cc(-c4ccc5ncn(C(C)(C)C)c5c4)c3n2)cn1 [P-379, 5-[7-(3-tert-butylbenzimidazol-5-yl)-5H-pyrrolo[2,3-b]pyrazin-2-yl]-N,N-dimethyl-pyridin-2-amine]
0.0001 to 1 | 0.0001 to 1 | 0.0001 to 1 | CC(C)(C)n1cnc2ccc(-c3c[nH]c4ncc(-c5ccnc(F)c5)nc34)cc21 [P-384, 7-(3-tert-butylbenzimidazol-5-yl)-2-(2-fluoro-4-pyridyl)-5H-pyrrolo[2,3-b]pyrazine]
0.0001 to 1 | 10 to 200 | 0.0001 to 1 | CS(=O)(=O)Nc1cccc(-c2cnc3[nH]cc(-c4ccc5ncn(CC(F)(F)F)c5c4)c3n2)c1 [P-069, N-[3-[7-[3-(2,2,2-trifluoroethyl)benzimidazol-5-yl]-5H-pyrrolo[2,3-b]pyrazin-2-yl]phenyl]methanesulfonamide]
